Test results published in patent US8784910B2, “Antimicrobial compositions” (Lonza Inc., priority 2002, dated 2014).

What was measured:
Assay type in all cases: cell-based
[1] = system: Staphylococcus aureus (ATCC #6538); assay: Minimum Inhibitory Concentration (MIC), autodilutor, nutrient broth, 96 well plates (Example 8); settings: Staphylococcus aureus, ATCC6538; 72 hours at 32 degree Celsius, approximately 10^6 cfu/g, visual turbidity; read-out: MIC for S. Aureus
Method: The Minimum Inhibitory Concentration (MIC) of the preservative mixtures was tested. The MIC is the lowest concentration of an ingredient that will inhibit the growth of an organism. This study was conducted using the Hamilton Micro Lab AT Plus Autodilutor Liquid handling System. The programs for the auto-dilutor were based on Lonza's Standard Application Method SAPM#412-01-1. The Hamilton Autodilutor was used to dilute the starting concentrations of the preservative combination by 50% using nutrient broth in 96 well micro titer plates and also to inoculate the microorganism in the test samples. This preservatives tested were Isocil™ (a blend of methyl isothiazolinone and methyl-chloro-isothiazolinone), Benzocil™ (benzisothiazolinone) and Lonzagard™ (benzethonium chloride), all of which are available from Lonza Inc. of Fair Lawn, N.J., in various concentrations and combinations with cinnamaldehyde. Controls were also included in each test plate. […] Results were determined by checking for growth in the test samples versus the control wells on each plate (visual determination of turbidity in the wells). […] Synergism values for the Isocil™/cinnamaldehyde and Benzocil™/cinnamaldehyde combinations were calculated from the MIC values reported in Table 11 by the method described in Kull, supra, referred to above, and are set forth in Tables 12 and 13, below.

fungi = assay: Fungal plate count of preserved GMS cream (Example 6)
Method: Each cream sample in Table 5 below was tested by the procedure described in Example 1. A glyceryl monostearate (GMS) cream as described in Table 3 below was prepared as follows. The polyoxyethylene glyceryl monostearate, glyceryl monostearate, cetearyl alcohol, and myristyl propionate were mixed and heated to 60 EC in a first container. The glycerin and sterile deionized water were mixed and heated to 60 EC in a second container. The solution in the first container was poured into the second container. The second container was maintained at 60 EC for 10 minutes. The solution in the second container was allowed to cool. The pH of the solution was adjusted to pH 7 with sodium hydroxide to yield the GMS cream. The cream samples shown in Table 7 below were prepared by mixing the appropriate amounts of the preservatives and the GMS cream and heating the mixture to 50 EC for 10-15 minutes.

[2] = system: Candida albicans and Aspergillus niger; assay: Mixed fungal challenge of preserved anionic protein shampoo (Example 5)
Method: Each anionic shampoo sample in Table 4 below was tested as follows. A standard mixed […] solution was prepared according to the following procedure. 2 agar […] of Candida albicans and 4 agar […] of Aspergillus niger were separately incubated at about 25 EC for about 48 hours and 7 days, respectively. Each slant was washed with 3 mL of sterile 0.85% saline solution, collected and macerated in a tissue grinder. Sufficient amounts of 0.85% saline solution were added to each slant to obtain a visual count under a microscope with a Neubauer Hemocytometer of each innoculum of C. albicans and A. niger. Equal volumes of each standardized innoculum of C. albicans and A. niger were mixed together to form the standardized mixed fungal solution. 40 g of each shampoo sample was inoculated with 0.4 mL of the standardized mixed fungal solution and mixed. 1 g of the mixture was added to a sterile 20×150 mm screw cap test tube. 9 mL of sterile D/E neutralizer broth was added to the test tube and mixed to form a 10^-1 dilution. Serial dilutions were prepared through to a 10^-6 dilution with phosphate buffered water. The serial dilutions were plated onto Sabourand dextrose agar and incubated 5 days at about 25 EC. […] The anionic protein shampoo composition is described in Example 4. The shampoo samples were prepared by mixing the appropriate amounts of the preservatives and the anionic protein shampoo composition and heating the mixture to about 50 EC for about 15 minutes.

[3] = system: S. aureus, P. aeruginosa, and E. coli; assay: Mixed bacterial challenge of preserved GMS cream (Example 6)
Method: Each anionic shampoo sample in FIGS. 1-3 were tested as follows. […] Each stab was then washed with 3 mL of sterile 0.85% saline solution. The washes of the 3 stabs were pooled together to form an organism mixture. The absorbance of the organism mixture at 530 nm was adjusted to about 1.00 by adding saline. The spectrometer was calibrated with a saline blank. A 5 mL aliquot of the organism mixture was mixed together to produce the standardized mixed bacterial solution. Then, 40 g of each shampoo sample was inoculated with 0.2 mL of the standardized mixed bacterial solution and mixed. 1 g of the mixture was added to a sterile 20×150 mm screw cap test tube. 9 mL of sterile D/E neutralizer broth was added to the test tube and mixed to form a 10^−1 dilution. Serial dilutions were prepared through to a 10^−6 dilution with phosphate buffered water. The serial dilutions were plated onto Tryptic Soy Agar and incubated for 2 days at about 35 EC. Bacteria counts were performed after 21 days. Each cream sample in Table 5 below was tested by the procedure described in Example 1. A glyceryl monostearate (GMS) cream as described in Table 3 below was prepared as follows. The polyoxyethylene glyceryl monostearate, glyceryl monostearate, cetearyl alcohol, and myristyl propionate were mixed and heated to 60 EC in a first container. The glycerin and sterile deionized water were mixed and heated to 60 EC in a second container. The solution in the first container was poured into the second container. The second container was maintained at 60 EC for 10 minutes. The solution in the second container was allowed to cool. The pH of the solution was adjusted to pH 7 with sodium hydroxide to yield the GMS cream. The cream samples shown in Table 6 below were prepared by mixing the appropriate amounts of the preservatives and the GMS cream and heating the mixture to 50 EC for 10-15 minutes.

Structure (SMILES): O=CC=Cc1ccccc1 [Cinnamaldehyde, cinnamaldehyde]
- MIC [1]: 125 µg/mL
- Fungal Plate Count Day 0 (fungi; 0.10% in GMS cream): 1.0 × 10^5 cfu/g
- Fungal Plate Count Day 7 (fungi; 0.10% in GMS cream): <10 cfu/g
- Fungal Plate Count Day 14 (fungi; 0.10% in GMS cream): <10 cfu/g
- Fungal Plate Count Day 0 (fungi; 0.25% in GMS cream): 1.0 × 10^5 cfu/g
- Fungal Plate Count Day 7 (fungi; 0.25% in GMS cream): <10 cfu/g
- Fungal Plate Count Day 14 (fungi; 0.25% in GMS cream): <10 cfu/g
- Fungal Plate Count Day 0 ([2]; 0.05% in shampoo): 1.0 × 10^5 cfu/g
- Fungal Plate Count Day 7 ([2]; 0.05% in shampoo): 8.0 × 10^3 cfu/g
- Fungal Plate Count Day 14 ([2]; 0.05% in shampoo): <10 cfu/g
- Fungal Plate Count Day 0 ([2]; 0.10% in shampoo): 1.0 × 10^5 cfu/g
- Fungal Plate Count Day 7 ([2]; 0.10% in shampoo): 3.0 × 10^1 cfu/g
- Fungal Plate Count Day 14 ([2]; 0.10% in shampoo): <10 cfu/g
- Fungal Plate Count Day 0 ([2]; 0.20 in shampoo): 1.0 × 10^5 cfu/g
- Fungal Plate Count Day 7 ([2]; 0.20 in shampoo): <10 cfu/g
- Fungal Plate Count Day 14 ([2]; 0.20 in shampoo): <10 cfu/g
- S. aureus, P. aeruginosa, and E. coli Day 0 ([3]; 0.10% in GMS cream pH 7, Day 0): 3.0 × 10^7 cfu/g
- S. aureus, P. aeruginosa, and E. coli Day 7 ([3]; 0.10% in GMS cream pH 7, Day 7): 4.0 × 10^4 cfu/g
- S. aureus, P. aeruginosa, and E. coli Day 14 ([3]; 0.10% in GMS cream pH 7, Day 14): 9.3 × 10^5 cfu/g
- S. aureus, P. aeruginosa, and E. coli Day 0 ([3]; 0.25% in GMS cream pH 7, Day 0): 3.0 × 10^7 cfu/g
- S. aureus, P. aeruginosa, and E. coli Day 7 ([3]; 0.25% in GMS cream pH 7, Day 7): <10 cfu/g
- S. aureus, P. aeruginosa, and E. coli Day 14 ([3]; 0.25% in GMS cream pH 7, Day 14): <10 cfu/g
